From patent US12606551B2, “Salt of tetrahydroisoquinoline derivative, preparation method therefor, and medical use thereof” (ZHEJIANG HISUN PHARMACEUTICAL CO., LTD., priority 2020, dated 2026)

Biological target: T1, AT1R (Homo sapiens, UniProt P30556)
T1 construct: Tb (terbium) label on the receptor; expressed in transfected cells
T1 sequence (P30556 1-359): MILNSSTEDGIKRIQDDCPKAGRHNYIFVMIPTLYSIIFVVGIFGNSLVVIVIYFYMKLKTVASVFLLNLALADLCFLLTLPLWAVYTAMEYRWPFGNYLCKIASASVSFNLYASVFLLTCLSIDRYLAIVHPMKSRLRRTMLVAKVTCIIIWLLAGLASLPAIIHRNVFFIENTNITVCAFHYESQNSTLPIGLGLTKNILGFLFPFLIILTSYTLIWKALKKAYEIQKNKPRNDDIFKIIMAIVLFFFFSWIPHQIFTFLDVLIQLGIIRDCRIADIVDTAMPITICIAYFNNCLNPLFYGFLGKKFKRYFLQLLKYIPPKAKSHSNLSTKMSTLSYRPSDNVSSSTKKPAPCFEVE
Assay: Antagonistic activity against AT1R (same method with Tb-labeled-AT1R cells)
Type: binding
Method: (12) Similarly, the IC50 of the antagonistic activity of the compounds of the present invention against AT1R was tested according to basically the same method, except that Tb-labeled-AT2R cells were replaced by Tb-labeled-AT1R cells.

COc1ccc(COc2c(OC)ccc3c2C[C@@H](C(=O)[O-])N(c2nc4ccc(F)cc4o2)C3)nc1.[Na+] [Compound 1]
IC50: > 10 µM
